± gives the standard deviation of the averaged measurements.
Tests used:
MDV3100 = compound: CNC(=O)c1ccc(N2C(=S)N(c3ccc(C#N)c(C(F)(F)F)c3)C(=O)C2(C)C)cc1F [MDV3100]; test: surviving fraction relative to DMSO-only wells; higher = less growth inhibition; conditions: exposure time: 5 days
How it was run: (§1)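 Continuous five-day exposure to inhibitors at 0.5, 1, 5, 10, 50, 100, 500 and 1000 nM started 24 hours after log-phase tumour cell lines were seeded at 250–500 cells per well in 384-well plates. Luminescence was read after 10 minutes at room temperature. Viability is given as surviving fraction, meaning CellTiter-Glo luminescence normalised to the median of DMSO-only wells.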

SAPACITABINE = compound: CCCCCCCCCCCCCCCC(=O)Nc1ccn([C@@H]2O[C@H](CO)[C@@H](O)[C@@H]2C#N)c(=O)n1 [SAPACITABINE]; test: as above; conditions: exposure time: 5 days
How it was run: as §1

BI-2536 [1] = compound: T1, CC[C@@H]1C(=O)N(C)c2cnc(Nc3ccc(C(=O)NC4CCN(C)CC4)cc3OC)nc2N1C1CCCC1 [BI-2536]; test: as above; conditions: exposure time: 5 days
How it was run: as §1

AFATINIB [2] = compound: T2, CN(C)C/C=C/C(=O)Nc1cc2c(Nc3ccc(F)c(Cl)c3)ncnc2cc1O[C@H]1CCOC1 [AFATINIB]; test: as above; conditions: exposure time: 5 days
How it was run: as §1

SNX-5422 [3] = compound: T3, CC1(C)CC(=O)c2c(C(F)(F)F)nn(-c3ccc(C(N)=O)c(N[C@H]4CC[C@H](OC(=O)CN)CC4)c3)c2C1 [SNX-5422]; test: as above; conditions: exposure time: 5 days
How it was run: as §1

[4] = compound: Cn1cc(C2=Nc3cc(NC(=O)C(N)C4CCCCC4)cc4c3C2=CNNC4=O)cn1; test: as above; conditions: exposure time: 5 days
How it was run: as §1

CANERTINIB = compound: C=CC(=O)Nc1cc2c(Nc3ccc(F)c(Cl)c3)ncnc2cc1OCCCN1CCOCC1 [CANERTINIB]; test: as above; conditions: exposure time: 5 days
How it was run: as §1

TIOGUANINE [5] = compound: T4, Nc1nc2[nH]cnc2c(=S)[nH]1 [TIOGUANINE]; test: as above; conditions: exposure time: 5 days
How it was run: as §1

BI-2536 [6] = compound: T1, BI-2536; test: area under dose-response curve of surviving fraction (unscaled, Aref=0) (surviving fraction x log10(nM)); higher = more resistant; conditions: exposure time: 5 days; dose range 0.5-1000 nM
How it was run: (§2)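 Inhibitor was applied to tumour cell lines at eight concentrations (0.5 to 1000 nM) for five days in 384-well plates. Luminescence from CellTiter-Glo, scaled to DMSO-only wells, gave surviving fractions in three screens per line, and these were fitted by 3-parameter logistic regression with the drc R package. The area under the curve is an unscaled activity area. Aref was 0, and dose was on a log10 scale.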

AFATINIB [7] = compound: T2, AFATINIB; test: as above; conditions: exposure time: 5 days; dose range 0.5-1000 nM
How it was run: as §2

SNX-5422 [8] = compound: T3, SNX-5422; test: as above; conditions: exposure time: 5 days; dose range 0.5-1000 nM
How it was run: as §2

[9] = compound: Cn1cc(C2=Nc3cc(NC(=O)C(N)C4CCCCC4)cc4c3C2=CNNC4=O)cn1; test: as above; conditions: exposure time: 5 days; dose range 0.5-1000 nM
How it was run: as §2

TIOGUANINE [10] = compound: T4, TIOGUANINE; test: as above; conditions: exposure time: 5 days; dose range 0.5-1000 nM
How it was run: as §2

## HCC202 BREAST
MDV3100; 0.5 nM
  surviving fraction: 0.968 ± 0.098
MDV3100; 1 nM
  surviving fraction: 0.983 ± 0.18
MDV3100; 5 nM
  surviving fraction: 0.865 ± 0.21
MDV3100; 10 nM
  surviving fraction: 0.97 ± 0.34
MDV3100; 50 nM
  surviving fraction: 1.1 ± 0.043
MDV3100; 100 nM
  surviving fraction: 0.86 ± 0.12
MDV3100; 500 nM
  surviving fraction: 0.999 ± 0.25
MDV3100; 1000 nM
  surviving fraction: 0.623 ± 0.085
SAPACITABINE; 0.5 nM
  surviving fraction: 0.86 ± 0.17
SAPACITABINE; 1 nM
  surviving fraction: 0.93 ± 0.091
SAPACITABINE; 5 nM
  surviving fraction: 1.04 ± 0.38
SAPACITABINE; 10 nM
  surviving fraction: 0.761 ± 0.21
SAPACITABINE; 50 nM
  surviving fraction: 1.08 ± 0.37
SAPACITABINE; 100 nM
  surviving fraction: 0.904 ± 0.0085
SAPACITABINE; 500 nM
  surviving fraction: 0.911 ± 0.15
SAPACITABINE; 1000 nM
  surviving fraction: 0.851 ± 0.048
BI-2536 [1]; 0.5 nM
  surviving fraction: 0.938 ± 0.18
BI-2536 [1]; 1 nM
  surviving fraction: 0.952 ± 0.097
BI-2536 [1]; 5 nM
  surviving fraction: 0.421 ± 0.034
BI-2536 [1]; 10 nM
  surviving fraction: 0.345 ± 0.037
BI-2536 [1]; 50 nM
  surviving fraction: 0.538 ± 0.033
BI-2536 [1]; 100 nM
  surviving fraction: 0.502 ± 0.12
BI-2536 [1]; 500 nM
  surviving fraction: 0.379 ± 0.044
BI-2536 [1]; 1000 nM
  surviving fraction: 0.306 ± 0.062
AFATINIB [2]; 0.5 nM
  surviving fraction: 1.12 ± 0.36
AFATINIB [2]; 1 nM
  surviving fraction: 0.943 ± 0.36
AFATINIB [2]; 5 nM
  surviving fraction: 0.561 ± 0.2
AFATINIB [2]; 10 nM
  surviving fraction: 0.442 ± 0.098
AFATINIB [2]; 50 nM
  surviving fraction: 0.253 ± 0.07
AFATINIB [2]; 100 nM
  surviving fraction: 0.191 ± 0.048
AFATINIB [2]; 500 nM
  surviving fraction: 0.0983 ± 0.031
AFATINIB [2]; 1000 nM
  surviving fraction: 0.0747 ± 0.0055
SNX-5422 [3]; 0.5 nM
  surviving fraction: 1.37 ± 0.51
SNX-5422 [3]; 1 nM
  surviving fraction: 0.842 ± 0.83
SNX-5422 [3]; 5 nM
  surviving fraction: 0.874 ± 0.71
SNX-5422 [3]; 10 nM
  surviving fraction: 1.11 ± 0.68
SNX-5422 [3]; 50 nM
  surviving fraction: 0.514 ± 0.12
SNX-5422 [3]; 100 nM
  surviving fraction: 0.534 ± 0.12
SNX-5422 [3]; 500 nM
  surviving fraction: 0.218 ± 0.053
SNX-5422 [3]; 1000 nM
  surviving fraction: 0.186 ± 0.043
[4]; 0.5 nM
  surviving fraction: 0.89 ± 0.18
[4]; 1 nM
  surviving fraction: 0.775 ± 0.22
[4]; 5 nM
  surviving fraction: 0.967 ± 0.15
[4]; 10 nM
  surviving fraction: 0.838 ± 0.22
[4]; 50 nM
  surviving fraction: 0.66 ± 0.27
[4]; 100 nM
  surviving fraction: 0.505 ± 0.18
[4]; 500 nM
  surviving fraction: 0.274 ± 0.049
[4]; 1000 nM
  surviving fraction: 0.341 ± 0.054
CANERTINIB; 0.5 nM
  surviving fraction: 0.939 ± 0.12
CANERTINIB; 1 nM
  surviving fraction: 0.93 ± 0.18
CANERTINIB; 5 nM
  surviving fraction: 0.867 ± 0.21
CANERTINIB; 10 nM
  surviving fraction: 0.682 ± 0.011
CANERTINIB; 50 nM
  surviving fraction: 0.602 ± 0.19
CANERTINIB; 100 nM
  surviving fraction: 0.494 ± 0.053
CANERTINIB; 500 nM
  surviving fraction: 0.333 ± 0.057
CANERTINIB; 1000 nM
  surviving fraction: 0.177 ± 0.051
TIOGUANINE [5]; 0.5 nM
  surviving fraction: 1.28 ± 0.11
TIOGUANINE [5]; 1 nM
  surviving fraction: 1.25 ± 0.14
TIOGUANINE [5]; 5 nM
  surviving fraction: 1.32 ± 0.35
TIOGUANINE [5]; 10 nM
  surviving fraction: 1.3 ± 0.28
TIOGUANINE [5]; 50 nM
  surviving fraction: 1.32 ± 0.14
TIOGUANINE [5]; 100 nM
  surviving fraction: 1.78 ± 0.35
TIOGUANINE [5]; 500 nM
  surviving fraction: 1.2 ± 0.19
TIOGUANINE [5]; 1000 nM
  surviving fraction: 1.24 ± 0.067
BI-2536 [6]
  area under dose-response curve: 1.68
AFATINIB [7]
  area under dose-response curve: 1.39
SNX-5422 [8]
  area under dose-response curve: 2.33
[9]
  area under dose-response curve: 2.24
TIOGUANINE [10]
  area under dose-response curve: 4.41

## HS57T BREAST
MDV3100; 0.5 nM
  surviving fraction: 0.866 ± 0.091
MDV3100; 1 nM
  surviving fraction: 0.918 ± 0.032
MDV3100; 5 nM
  surviving fraction: 0.963 ± 0.033
MDV3100; 10 nM
  surviving fraction: 0.947 ± 0.12
MDV3100; 50 nM
  surviving fraction: 0.847 ± 0.069
MDV3100; 100 nM
  surviving fraction: 0.955 ± 0.043
MDV3100; 500 nM
  surviving fraction: 0.923 ± 0.068
MDV3100; 1000 nM
  surviving fraction: 0.912 ± 0.041
SAPACITABINE; 0.5 nM
  surviving fraction: 0.892 ± 0.016
SAPACITABINE; 1 nM
  surviving fraction: 0.885 ± 0.028
SAPACITABINE; 5 nM
  surviving fraction: 0.904 ± 0.051
SAPACITABINE; 10 nM
  surviving fraction: 0.853 ± 0.027
SAPACITABINE; 50 nM
  surviving fraction: 0.75 ± 0.024
SAPACITABINE; 100 nM
  surviving fraction: 0.612 ± 0.045
SAPACITABINE; 500 nM
  surviving fraction: 0.325 ± 0.037
SAPACITABINE; 1000 nM
  surviving fraction: 0.246 ± 0.011
BI-2536 [1]; 0.5 nM
  surviving fraction: 1.1 ± 0.045
BI-2536 [1]; 1 nM
  surviving fraction: 0.986 ± 0.028
BI-2536 [1]; 5 nM
  surviving fraction: 0.216 ± 0.016
BI-2536 [1]; 10 nM
  surviving fraction: 0.114 ± 0.011
BI-2536 [1]; 50 nM
  surviving fraction: 0.0903 ± 0.0047
BI-2536 [1]; 100 nM
  surviving fraction: 0.0937 ± 0.0085
BI-2536 [1]; 500 nM
  surviving fraction: 0.156 ± 0.025
BI-2536 [1]; 1000 nM
  surviving fraction: 0.127 ± 0.009
AFATINIB [2]; 0.5 nM
  surviving fraction: 1.05 ± 0.053
AFATINIB [2]; 1 nM
  surviving fraction: 1.03 ± 0.056
AFATINIB [2]; 5 nM
  surviving fraction: 1.13 ± 0.023
AFATINIB [2]; 10 nM
  surviving fraction: 1.04 ± 0.051
AFATINIB [2]; 50 nM
  surviving fraction: 1.11 ± 0.077
AFATINIB [2]; 100 nM
  surviving fraction: 1.09 ± 0.076
AFATINIB [2]; 500 nM
  surviving fraction: 0.787 ± 0.024
AFATINIB [2]; 1000 nM
  surviving fraction: 0.423 ± 0.057
SNX-5422 [3]; 0.5 nM
  surviving fraction: 1.1 ± 0.014
SNX-5422 [3]; 1 nM
  surviving fraction: 1.09 ± 0.046
SNX-5422 [3]; 5 nM
  surviving fraction: 1.15 ± 0.034
SNX-5422 [3]; 10 nM
  surviving fraction: 1.13 ± 0.034
SNX-5422 [3]; 50 nM
  surviving fraction: 0.215 ± 0.011
SNX-5422 [3]; 100 nM
  surviving fraction: 0.22 ± 0.016
SNX-5422 [3]; 500 nM
  surviving fraction: 0.127 ± 0.0093
SNX-5422 [3]; 1000 nM
  surviving fraction: 0.126 ± 0.0052
[4]; 0.5 nM
  surviving fraction: 1.04 ± 0.02
[4]; 1 nM
  surviving fraction: 1.09 ± 0.027
[4]; 5 nM
  surviving fraction: 1.11 ± 0.019
[4]; 10 nM
  surviving fraction: 1.08 ± 0.047
[4]; 50 nM
  surviving fraction: 0.967 ± 0.07
[4]; 100 nM
  surviving fraction: 0.72 ± 0.027
[4]; 500 nM
  surviving fraction: 0.097 ± 0.0087
[4]; 1000 nM
  surviving fraction: 0.0793 ± 0.0038
CANERTINIB; 0.5 nM
  surviving fraction: 0.946 ± 0.044
CANERTINIB; 1 nM
  surviving fraction: 0.899 ± 0.047
CANERTINIB; 5 nM
  surviving fraction: 0.893 ± 0.11
CANERTINIB; 10 nM
  surviving fraction: 0.911 ± 0.02
CANERTINIB; 50 nM
  surviving fraction: 0.919 ± 0.081
CANERTINIB; 100 nM
  surviving fraction: 0.908 ± 0.012
CANERTINIB; 500 nM
  surviving fraction: 0.843 ± 0.047
CANERTINIB; 1000 nM
  surviving fraction: 0.692 ± 0.02
TIOGUANINE [5]; 0.5 nM
  surviving fraction: 0.9547 ± 0.0035
TIOGUANINE [5]; 1 nM
  surviving fraction: 1.02 ± 0.087
TIOGUANINE [5]; 5 nM
  surviving fraction: 0.99 ± 0.03
TIOGUANINE [5]; 10 nM
  surviving fraction: 0.988 ± 0.029
TIOGUANINE [5]; 50 nM
  surviving fraction: 0.928 ± 0.04
TIOGUANINE [5]; 100 nM
  surviving fraction: 1.03 ± 0.06
TIOGUANINE [5]; 500 nM
  surviving fraction: 0.928 ± 0.016
TIOGUANINE [5]; 1000 nM
  surviving fraction: 0.945 ± 0.064
